# Assay: photoluminescence quantum yield (fraction); solvent given as SMILES
smiles,measurement,setting,value
CC1=N/C(=C\c2ccc(N(C)C)cc2)C(=O)N1C,photoluminescence quantum yield,in C1CCCCC1,0.0001
same,photoluminescence quantum yield,in C1CCOC1,0.0004
same,photoluminescence quantum yield,in CC#N,0.0003
same,photoluminescence quantum yield,in CO,0.0003
same,photoluminescence quantum yield,in CS(C)=O,0.0002
same,photoluminescence quantum yield,in ClCCl,0.0009
same,photoluminescence quantum yield,in O,0.0002
CNc1ncc2nc(C#N)n(Cc3ccccc3)c2n1,photoluminescence quantum yield,in C1COCCO1,0.61
same,photoluminescence quantum yield,in CC#N,0.58
same,photoluminescence quantum yield,in CO,0.49
same,photoluminescence quantum yield,in ClCCl,0.58
Cc1c(COC(=O)c2ccccc2)n2c(OCC(=O)c3ccccc3)c(C)c(=O)n2c1=O,photoluminescence quantum yield,in CCO,0.839
Cc1cccc2ccccc12,photoluminescence quantum yield,in C1CCCCC1,0.4
Nc1cccc2c1C(=O)NC2=O,photoluminescence quantum yield,in C1CCOC1,0.97
same,photoluminescence quantum yield,in CCO,0.74
same,photoluminescence quantum yield,in CN(C)C=O,0.66
COc1cc(/C=C/C(=O)CC(=O)/C=C/c2ccc(O)c(OC)c2)ccc1O,photoluminescence quantum yield,in C1CCCCC1,0.014
same,photoluminescence quantum yield,in CC#N,0.075
same,photoluminescence quantum yield,in CN(C)C=O,0.022
same,photoluminescence quantum yield,in CO,0.017
same,photoluminescence quantum yield,in CS(C)=O,0.024
same,photoluminescence quantum yield,in c1ccccc1,0.052
Fc1c(F)c(-n2c3ccccc3c3ccccc32)c(F)c(-n2c3ccccc3c3ccccc32)c1-c1nnc(-c2ccccc2)o1,photoluminescence quantum yield,in Cc1ccccc1,0.08
Cc1cccn2c1cc1c3ccccc3nc(-c3cccs3)c12,photoluminescence quantum yield,in CS(C)=O,0.2
COc1ccc2c3ccc(OC)cc3n(-c3ccc(-c4nnc(-c5c(C)cc(C)cc5C)o4)cc3C)c2c1,photoluminescence quantum yield,in Cc1ccccc1,0.06
CN(C)c1ccc(/C=C/c2cnc3ccccc3n2)cc1,photoluminescence quantum yield,in ClCCl,0.59
CC(C)c1cccc(C(C)C)c1N1C(=O)c2ccc3c(-c4ccc(C(=O)O)cc4)c4c5ccc6c7c(ccc(c(-c8ccc(C(=O)O)cc8)c4c4ccc(c2c34)C1=O)c75)C(=O)N(c1c(C(C)C)cccc1C(C)C)C6=O,photoluminescence quantum yield,in ClCCl,0.3
CC1=C(c2ccc(N(c3ccccc3)c3ccccc3)cc2)C(C)=[N+]2C1=C(c1c(-c3ccccn3)nc3ccccn13)c1c(C)cc(C)n1[B-]2(F)F,photoluminescence quantum yield,in ClCCl,0.0038
COc1ccc(-c2cc(B(c3c(C)cc(C)cc3C)c3c(C)cc(C)cc3C)c(-c3sc(-c4ccc(OC)cc4)cc3P(=O)(c3ccccc3)c3ccccc3)s2)cc1,photoluminescence quantum yield,in CO,0.55
Clc1ccc2cc3cccc[n+]3cc2c1,photoluminescence quantum yield,in O,0.2
F[B-]1(F)OC(c2ccc(Br)cc2)=Cc2ccc3ccccc3[n+]21,photoluminescence quantum yield,in ClC(Cl)Cl,0.49
N#CC(C#N)=Cc1ccc(-c2ccc(O)c(-c3nc4ccccc4s3)c2)s1,photoluminescence quantum yield,in CCO,0.0198
same,photoluminescence quantum yield,in ClCCl,0.016
CC(C)c1cccc(C(C)C)c1N1C(=O)c2cc(Cl)c3c4c(Cl)cc5c6c(cc(Cl)c(c7c(Cl)cc(c2c37)C1=O)c64)C(=O)N(c1c(C(C)C)cccc1C(C)C)C5=O,photoluminescence quantum yield,in Cc1ccccc1,0.95
CCN(CC)c1ccc([N+]2=Cc3ccc4c5c(ccc4c3O[B-]2(c2c(F)c(F)c(F)c(F)c2F)c2c(F)c(F)c(F)c(F)c2F)C=[N+](c2ccc(N(CC)CC)cc2)[B-](c2c(F)c(F)c(F)c(F)c2F)(c2c(F)c(F)c(F)c(F)c2F)O5)cc1,photoluminescence quantum yield,in Cc1ccccc1,0.33
same,photoluminescence quantum yield,in ClCCl,0.1
CN(C)c1ccc(/C=C/c2ccc([N+](=O)[O-])c(O)c2)cc1,photoluminescence quantum yield,in C1CCCCC1,0.11
same,photoluminescence quantum yield,in C1COCCO1,0.02
same,photoluminescence quantum yield,in CCCCCCC,0.09
same,photoluminescence quantum yield,in Cc1ccccc1,0.09
CC(C)(C)c1ccc(-c2c(-c3ccc(N(c4ccccc4)c4ccccc4)cc3)cc(-c3ccc(N(c4ccccc4)c4ccccc4)cc3)c(-c3ccc(C(C)(C)C)cc3)c2-c2ccc(C(C)(C)C)cc2)cc1,photoluminescence quantum yield,in C1CCOC1,0.587
COC(=O)CCC1=CC(C#Cc2cccs2)=[N+]2C1=Cc1c(CCC(=O)OC)cc(C#Cc3cccs3)n1[B-]2(F)F,photoluminescence quantum yield,in ClCCl,0.17
CC(C)(C)c1ccc2c(c1)Sc1cc(C(C)(C)C)ccc1N2c1ccc2c(ccc3nc4ccc5cc(N6c7ccc(C(C)(C)C)cc7Sc7cc(C(C)(C)C)ccc76)ccc5c4nc32)c1,photoluminescence quantum yield,in C1CCCCC1,0.11
same,photoluminescence quantum yield,in Cc1ccccc1,0.04
CC(C)(C)c1ccc(-c2cc(-c3ccc(-c4cc(-c5ccc(C(C)(C)C)cc5)c(C(=O)N5CCOCC5)s4)s3)sc2C(=O)N2CCOCC2)cc1,photoluminescence quantum yield,in ClCCl,0.26

# — the Deep4Chem optical property database
